From paper PMC4207660, “Identification and Characterization of Hundreds of Potent and Selective Inhibitors of Trypanosoma brucei Growth from a Kinase-Targeted Library Screening Campaign” (PLoS Neglected Tropical Diseases, 2014)
≈ marks a conversion by molar mass, not a printed value.

Legend:
IKK1 = molecular target: T1, IKK1 (Homo sapiens, UniProt O15111); test: Human kinase selectivity screening: IKK1; assay type: biochemical; details: read-out: IKK1 pIC50 values (converted)
T1 sequence (O15111 1-745): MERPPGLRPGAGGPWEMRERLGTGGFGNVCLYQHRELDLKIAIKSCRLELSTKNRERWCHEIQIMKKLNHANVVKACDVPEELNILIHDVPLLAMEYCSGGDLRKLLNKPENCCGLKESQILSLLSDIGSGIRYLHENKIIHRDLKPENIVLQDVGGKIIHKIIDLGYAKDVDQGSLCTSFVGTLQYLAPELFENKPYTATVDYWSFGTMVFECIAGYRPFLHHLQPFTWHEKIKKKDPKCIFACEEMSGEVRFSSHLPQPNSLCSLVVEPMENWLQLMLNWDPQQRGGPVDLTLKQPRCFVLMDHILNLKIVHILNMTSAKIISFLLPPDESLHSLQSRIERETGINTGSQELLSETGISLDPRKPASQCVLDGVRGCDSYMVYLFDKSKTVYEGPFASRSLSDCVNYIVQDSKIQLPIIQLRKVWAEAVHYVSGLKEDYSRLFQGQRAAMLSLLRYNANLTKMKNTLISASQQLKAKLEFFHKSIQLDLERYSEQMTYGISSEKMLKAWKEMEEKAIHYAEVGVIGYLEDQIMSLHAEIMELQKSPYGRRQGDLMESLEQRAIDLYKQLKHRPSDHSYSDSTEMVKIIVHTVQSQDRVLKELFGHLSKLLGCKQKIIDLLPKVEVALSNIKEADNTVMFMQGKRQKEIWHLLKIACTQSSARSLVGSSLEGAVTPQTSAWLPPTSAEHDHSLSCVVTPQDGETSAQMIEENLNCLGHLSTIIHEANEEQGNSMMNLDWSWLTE
Text: (§1) These kinases were chosen for general selectivity screening owing to their broad representation of the human kinome.

ITK = molecular target: T2, ITK (Homo sapiens, UniProt Q08881); test: Human kinase selectivity screening: ITK; assay type: biochemical; details: read-out: ITK pIC50 values (converted)
T2 sequence (Q08881 1-620): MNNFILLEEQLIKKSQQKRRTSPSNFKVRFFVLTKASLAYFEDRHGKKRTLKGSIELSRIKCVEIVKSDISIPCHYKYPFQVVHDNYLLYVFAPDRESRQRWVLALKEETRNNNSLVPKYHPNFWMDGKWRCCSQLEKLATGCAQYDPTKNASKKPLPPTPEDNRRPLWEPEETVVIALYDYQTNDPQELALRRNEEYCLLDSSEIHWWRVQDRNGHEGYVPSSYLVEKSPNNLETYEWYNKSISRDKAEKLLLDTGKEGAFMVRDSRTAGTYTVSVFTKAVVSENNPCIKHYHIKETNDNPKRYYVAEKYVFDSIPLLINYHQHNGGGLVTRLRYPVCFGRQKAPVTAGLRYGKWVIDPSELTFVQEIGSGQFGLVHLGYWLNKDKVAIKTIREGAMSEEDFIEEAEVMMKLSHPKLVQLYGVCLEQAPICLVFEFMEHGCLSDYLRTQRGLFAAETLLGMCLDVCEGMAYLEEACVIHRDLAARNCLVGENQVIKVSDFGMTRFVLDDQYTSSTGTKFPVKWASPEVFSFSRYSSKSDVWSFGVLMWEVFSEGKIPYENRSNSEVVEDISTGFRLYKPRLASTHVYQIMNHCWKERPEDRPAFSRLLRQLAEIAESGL
Text: as §1

EGFR = EGFR (Homo sapiens, UniProt P00533); test: Human kinase selectivity screening: EGFR; assay type: biochemical; details: read-out: EGFR pIC50 values (converted)
Text: as §1

ROCK1 = ROCK1 (Homo sapiens, UniProt Q13464); test: Human kinase selectivity screening: ROCK1; assay type: biochemical; details: read-out: ROCK1 pIC50 values (converted)
Text: as §1

ChromlogD assay = test: ChromlogD assay
Description: The Chromatographic Hydrophobicity Index (CHI)[22] values were measured using reversed phase HPLC column (Luna C18 (2), Phenomenex, UK) with a fast acetonitrile gradient at starting mobile phase of pH = 7.4. CHI values are derived directly from the gradient retention times by using a calibration line obtained for standard compounds. The CHI value approximates to the volume % organic concentration when the compound elutes. […] The average error of the assay is ±3 CHI unit or ±0.25 ChromlogD.

[1] = CLND kinetic solubility assay; assay type: physicochemical; details: phosphate buffered saline, pH 7.4, aqueous buffer, kinetic from dmso stock; Measured; read-out: Aq Sol
Description: 5 µL of 10 mM DMSO stock solution was diluted to 100 µL with pH 7.4 phosphate buffered saline, equilibrated for 1 hour at room temperature, filtered through Millipore MultiscreenHTS-PCF filter plates (MSSL BPC). The filtrate was quantified by suitably calibrated flow injection Chemi-Luminescent Nitrogen Detection.

Chain of EGFR (P00533 25-1210): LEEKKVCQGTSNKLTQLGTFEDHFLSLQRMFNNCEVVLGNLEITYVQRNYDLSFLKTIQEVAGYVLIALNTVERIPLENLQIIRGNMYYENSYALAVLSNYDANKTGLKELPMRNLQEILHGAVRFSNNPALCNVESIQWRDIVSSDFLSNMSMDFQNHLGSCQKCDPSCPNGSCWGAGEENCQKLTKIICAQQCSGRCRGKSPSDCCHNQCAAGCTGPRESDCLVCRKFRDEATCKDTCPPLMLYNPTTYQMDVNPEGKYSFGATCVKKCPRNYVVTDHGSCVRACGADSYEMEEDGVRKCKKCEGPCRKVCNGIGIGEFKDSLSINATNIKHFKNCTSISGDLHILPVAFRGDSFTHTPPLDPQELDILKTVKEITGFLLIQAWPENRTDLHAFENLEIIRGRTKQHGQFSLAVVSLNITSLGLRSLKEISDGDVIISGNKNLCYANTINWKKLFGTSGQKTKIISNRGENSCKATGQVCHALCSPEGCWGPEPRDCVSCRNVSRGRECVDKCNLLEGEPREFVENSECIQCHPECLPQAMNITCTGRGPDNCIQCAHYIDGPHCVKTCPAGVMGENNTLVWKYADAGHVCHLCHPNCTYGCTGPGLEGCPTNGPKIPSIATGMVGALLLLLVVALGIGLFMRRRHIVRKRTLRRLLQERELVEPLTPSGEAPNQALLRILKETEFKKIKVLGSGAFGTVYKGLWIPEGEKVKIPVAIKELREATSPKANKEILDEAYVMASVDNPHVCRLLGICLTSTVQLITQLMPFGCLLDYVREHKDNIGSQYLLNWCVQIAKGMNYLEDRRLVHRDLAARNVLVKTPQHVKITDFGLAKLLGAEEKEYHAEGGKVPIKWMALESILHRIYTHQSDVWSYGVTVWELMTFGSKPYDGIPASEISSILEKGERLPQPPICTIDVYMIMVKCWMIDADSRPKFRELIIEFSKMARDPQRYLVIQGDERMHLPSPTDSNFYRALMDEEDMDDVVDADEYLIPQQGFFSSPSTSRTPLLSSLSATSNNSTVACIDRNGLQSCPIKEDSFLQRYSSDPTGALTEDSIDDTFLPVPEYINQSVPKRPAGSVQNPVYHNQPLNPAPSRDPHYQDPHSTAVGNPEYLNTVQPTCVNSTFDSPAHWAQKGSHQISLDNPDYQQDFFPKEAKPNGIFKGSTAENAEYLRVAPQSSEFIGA
Chain of ROCK1 (Q13464 whole entry): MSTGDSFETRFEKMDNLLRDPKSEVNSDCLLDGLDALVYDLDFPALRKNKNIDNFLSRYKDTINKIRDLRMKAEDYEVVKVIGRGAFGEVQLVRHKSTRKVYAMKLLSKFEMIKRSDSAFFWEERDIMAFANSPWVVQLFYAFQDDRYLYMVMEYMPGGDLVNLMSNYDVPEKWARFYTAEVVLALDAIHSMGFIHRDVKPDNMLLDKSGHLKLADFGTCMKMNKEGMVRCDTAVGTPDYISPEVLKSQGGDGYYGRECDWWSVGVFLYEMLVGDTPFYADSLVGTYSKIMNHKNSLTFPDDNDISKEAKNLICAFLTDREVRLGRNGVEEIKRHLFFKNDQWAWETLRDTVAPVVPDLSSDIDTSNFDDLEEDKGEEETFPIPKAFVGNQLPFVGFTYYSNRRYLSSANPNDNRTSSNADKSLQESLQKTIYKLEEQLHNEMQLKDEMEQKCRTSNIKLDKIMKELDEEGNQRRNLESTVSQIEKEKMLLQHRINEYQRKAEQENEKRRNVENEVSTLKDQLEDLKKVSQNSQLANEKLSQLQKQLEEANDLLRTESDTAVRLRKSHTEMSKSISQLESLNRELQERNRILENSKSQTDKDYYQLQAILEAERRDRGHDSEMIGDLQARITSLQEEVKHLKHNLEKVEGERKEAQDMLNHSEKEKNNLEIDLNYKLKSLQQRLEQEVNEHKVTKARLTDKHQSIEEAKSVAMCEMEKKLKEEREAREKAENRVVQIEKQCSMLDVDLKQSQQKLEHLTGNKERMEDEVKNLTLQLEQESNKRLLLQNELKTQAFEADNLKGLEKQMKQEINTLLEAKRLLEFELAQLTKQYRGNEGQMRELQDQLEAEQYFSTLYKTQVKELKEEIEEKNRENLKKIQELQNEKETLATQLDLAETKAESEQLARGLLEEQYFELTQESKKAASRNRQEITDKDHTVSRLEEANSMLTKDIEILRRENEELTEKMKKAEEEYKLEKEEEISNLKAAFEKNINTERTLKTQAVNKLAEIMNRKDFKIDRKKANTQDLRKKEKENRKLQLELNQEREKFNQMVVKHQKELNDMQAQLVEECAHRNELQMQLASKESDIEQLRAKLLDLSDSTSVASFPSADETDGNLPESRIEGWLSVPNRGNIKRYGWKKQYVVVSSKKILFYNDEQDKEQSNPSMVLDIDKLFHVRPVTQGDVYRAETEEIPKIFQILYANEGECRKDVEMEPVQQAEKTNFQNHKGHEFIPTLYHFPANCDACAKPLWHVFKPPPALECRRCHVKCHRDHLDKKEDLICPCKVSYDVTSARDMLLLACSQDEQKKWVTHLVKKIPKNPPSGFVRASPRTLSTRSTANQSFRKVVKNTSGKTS

| SMILES | IC50 (IKK1) | IC50 (ITK) | IC50 (EGFR) | IC50 (ROCK1) | PFI (ChromlogD assay) | solubility kinetic at 1 h [1] |
| --- | --- | --- | --- | --- | --- | --- |
| CCCCc1nc(Nc2cccc(C)c2)c2c(=O)[nH]ccc2n1 [NEU-0001191] | > 25.1 µM | > 25.1 µM | > 25.1 µM | > 25.1 µM | 8.54 | 22 µM (≈ 6.78 µg/mL) |
| Cn1cc(-c2cnc3[nH]cc(-c4cccc(C#N)c4)c3c2)cn1 [NEU-0001207] | 0.158 µM | 1 µM | 5.01 µM | 0.794 µM | 7.84 | 12 µM (≈ 3.59 µg/mL) |
| Cc1cc(Nc2cc(C3CC3)[nH]n2)nc(N2CCCCC2)n1 [NEU-0001127] | 20 µM | 1 µM | > 25.1 µM | 20 µM | 6.13 | 265 µM (≈ 79.1 µg/mL) |
| CN(C)Cc1ccc(-c2[nH]c3ncc(C#N)cc3c2-c2ccccc2)cc1 [NEU-0001206] | > 25.1 µM | 0.0126 µM | 2.51 µM | 12.6 µM | 7.88 | 17 µM (≈ 5.99 µg/mL) |
| O=S1(=O)Cc2ccc(Nc3nccc(-c4ccc(F)cc4)n3)cc2C1 [NEU-0001142] | 0.631 µM | > 25.1 µM | > 25.1 µM | > 25.1 µM | 7.11 | 1 µM (≈ 0.355 µg/mL) |
| O=C(Nc1ccc(-c2ccnc3[nH]ccc23)s1)C1(Cc2ccccc2)CCCNC1 (stereo not drawn) [NEU-0001240] | 1.58 µM | 0.316 µM | > 25.1 µM | 0.00631 µM | 7.26 | 107 µM (≈ 44.6 µg/mL) |
| CCCNc1nc(Nc2cnn(C)c2)c2c(=O)[nH]ccc2n1 [NEU-0001187] | 1.58 µM | 0.0631 µM | 1.26 µM | 1.26 µM | 5.43 | 252 µM (≈ 75.4 µg/mL) |
